# Reference: paper PMC7196807 (Proceedings of the National Academy of Sciences of the …, 2020)
# Target: hIP6K1 (IP6K1) (Homo sapiens, UniProt Q92551)
# Test: kinase product identified by Dipp1 cocrystal structure
# Type: biochemical
# Settings: kinase site
# hIP6K1 (IP6K1), sequence (Q92551 whole entry): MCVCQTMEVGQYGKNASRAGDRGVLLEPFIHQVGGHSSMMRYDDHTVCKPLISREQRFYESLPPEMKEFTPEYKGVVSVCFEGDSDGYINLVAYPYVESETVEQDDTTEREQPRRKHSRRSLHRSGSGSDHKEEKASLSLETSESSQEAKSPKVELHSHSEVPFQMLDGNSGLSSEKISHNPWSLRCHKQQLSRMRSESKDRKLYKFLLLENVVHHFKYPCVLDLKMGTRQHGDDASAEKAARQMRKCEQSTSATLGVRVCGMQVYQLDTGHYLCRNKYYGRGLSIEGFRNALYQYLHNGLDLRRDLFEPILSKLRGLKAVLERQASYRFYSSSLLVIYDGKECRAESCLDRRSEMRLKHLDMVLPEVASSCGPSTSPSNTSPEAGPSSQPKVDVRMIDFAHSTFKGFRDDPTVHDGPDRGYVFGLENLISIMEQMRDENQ
compound,measurement,value
O=P(O)(O)O[C@H]1[C@@H](OP(=O)(O)O)[C@H](OP(=O)(O)O)[C@@H](OP(=O)(O)OP(=O)(O)O)[C@H](OP(=O)(O)O)[C@H]1OP(=O)(O)O [5-IP7],kinase product identified by Dipp1 cocrystal structure,IP6K1 IP7 product/DIPP complex confirms the stereomer as unambiguously 5-IP7
